Columns and labels:
Type in all cases: in vivo, human
[1] = Adverse events, vital signs and laboratory tests during creatine treatment
From the text: (§1) Diagnoses were established with the Schedule for Affective Disorders and Schizophrenia for School-Age Children-Present and Lifetime Version (K-SADS-PL) (Kaufman et al. 1997). A complete blood count, metabolic panel, lipid profile, thyroid stimulating hormone, urinalysis and urine microalbumin were obtained to establish that participants were in generally good health, and to rule out the presence of undiagnosed medical conditions. The laboratory studies were repeated at the conclusion of treatment, to prospectively identify any abnormalities associated with creatine administration.
(§2) Participants with depression were treated with fixed-dose Creapure® brand of creatine monohydrate (AlzChem LLC, Trostberg, Germany) 4 grams by mouth daily for 8 weeks. At each study visit, the following rating scales were administered: the CDRS ? R, the Clinical Global Impressions scale (Guy 1976) and the Columbia-Suicide Severity Rating Scale (C-SSRS) (Posner 2010). Adverse events were recorded at each study visit. Change in CDRS-R raw score was the primary outcome measure, with C-SSRS results and treatment-emergent adverse events serving as secondary clinical outcomes. ^31P-MRS brain scans were acquired with a Siemens 3 Tesla MRS scanner (Siemens AG, Munich, Germany) that is FDA-approved for clinical use. Two dimensional chemical shift imaging free induction decay (2D CSI FID) pulse sequence with an Fourier voxel resolution of 25×25×25 mm3, Field of View (FOV)=200×200×25 mm3, TR/TE=3000/2.3 ms, vector size=1024, bandwidth=2500 Hz, data collection time=11.2 minutes and the number of averages=24 was implemented to collect 2D CSI FID data using a ^31P/1H double-tuned volume head coil (Clinical MR Solutions LLC, Brookfield, Wis., USA). The proton channel was used for localization, high-resolution anatomic image acquisition and shimming Shimming was performed over the excited volume. 3D high-resolution images used for localization of CSI data were collected using inversion recovery magnetization prepared rapid gradient echo (MP-RAGE) pulse sequence with isotropic 1 mm3 resolution. The imaging parameters were as follows: TR/TE=2000/3.37 ms, FOV=256×192×144 mm3, and matrix size=256×1 92×144, for a total acquisition time of 4.8 minutes. Participants were instructed during the informed consent process, and again before entering the scanner, that they could discontinue scanning at any point if they experienced discomfort (e.g. claustrophobic anxiety). Non-study personnel trained in research patient advocacy attended each scanning session. The study protocol included two ^31P-MRS scans: one at baseline and a follow-up scan 8 weeks later.
Participants' vital signs were recorded at each study visit. […] Although not measured systematically, participant and parent acceptance of creatine as a treatment intervention appeared good, and there were no premature terminations due to concerns about the study drug.

[2] = test system: suicidality in female adolescents with MDD; assay: Columbia-Suicide Severity Rating Scale (C-SSRS) monitoring during creatine treatment; conditions: for C-SSRS During Treatment With Creatine (Weeks): monohydrate
Experimental: as §2
One participant reported no history of suicidal thoughts or behavior, but the others each endorsed significant histories of suicidality, indicating the severity and chronicity of the participants. Three of the participants had attempted suicide between 5 months and 5 years prior to study entry; at intake, four participants reported suicidal ideation in the 2 weeks prior to their baseline visit. During the treatment phase of the study, two participants reported no suicidality. Three participants reported suicidal ideation as treatment began, which lasted between 2 and 6 weeks. […]

[3] = test system: females between 13-18 years of age with a primary diagnosis of MDD, fluoxetine-treated (SSRI-resistant depression); assay: Open-label adjunctive creatine study: Children's Depression Rating Scale-Revised (CDRS-R) raw score
Experimental: Approval for the study was obtained from the University of Utah Institutional Review Board (IRB). Informed consent consisted of written parental permission as well as written assent from participants. The study was conducted under U.S. Food and Drug Administration (FDA) Investigational New Drug Application #104,586. An external Data Safety and Monitoring Board vested with authority to halt the trial was established, and the study was conducted in accordance of the principles of Good Clinical Practice (GCP).
Participants were recruited through clinician referrals and IRB-approved advertising. Consecutive patients who met inclusion criteria were enrolled. Inclusion criteria included the following: females between 13-18 years of age with a primary diagnosis of MDD and depressive symptoms persisting for >2 weeks at baseline; fluoxetine treatment for >8 weeks with >4 weeks at a dose of >40 mg/day (if doses higher than 20 mg/day were not tolerated, participants could meet inclusion criteria by taking fluoxetine 20 mg/day for >8 weeks); and a current Children's Depression Rating Scale-Revised (CDRS-R) (Poznanski and Mokros 1996) raw score>40. Consistent with the preliminary nature of the study, few exclusion criteria were applied. For example, no restrictions were placed on concomitant medications or psychotherapy. The study's exclusion criteria were: pre-existing renal disease, proteinuria or microalbuminuria at baseline; contraindication to magnetic resonance scanning (e.g. ferromagnetic implants or claustrophobia); primary diagnosis other than MDD; active psychotic symptoms; high risk for suicidal behavior; positive pregnancy test; active alcohol or drug addiction; known or suspected mental retardation; and unstable medical condition.
as §1
as §2, with “The imaging parameters were as follows: TR/TE=2000/3.37 ms, FOV=256×192×144 mm3, and matrix size=256×1 92×144, for a total acquisition time of 4.8 minutes. Participants were instructed during the informed consent process, and again before entering the scanner, that they could discontinue scanning at any point if they experienced discomfort (e.g. claustrophobic anxiety). Non-study personnel trained in research patient advocacy attended each scanning session. The study protocol included two ^31P-MRS scans: one at baseline and a follow-up scan 8 weeks later.” left out

[4] = test system: brain phosphorus metabolites (PCr, b-NTP, pH); assay: 31P-MRS brain scans of phosphorus metabolites at baseline and after 8 weeks of creatine
Experimental: Healthy control female adolescents were recruited for comparison ^31P-MRS scans through IRB-approved advertising. Following informed consent, the K-SADS-PL and CDRS-R were administered to establish the absence of psychiatric disorder(s) or depressive symptoms.
as §2
^31P MRS data were analyzed using jMRUI software (jMRUI version 4.0, European Community). A Hamming filter was applied to reduce signal contamination from neighbouring voxels before performing 2D Fast Fourier Transform (FFT) on the raw data. Nine voxel signals from a slice with a thickness of 25 mm located at the corpus callosum, anterior commissure and posterior commissure were summed after 2D FFT. Each voxel FID was apodized with a 10 Hz exponential line broadening before zero filling and FFT. The zero-order and first-order phase correction was performed in all spectrums.
We calculated the signal amplitudes for individual metabolites using AMARES (Advanced Method for Accurate, Robust and Efficient Spectral fitting of MRS data), which is a non-linear, time domain fitting algorithm within the jMRUI software application. The estimated amplitudes of phosphorus metabolites are reported with respect to the total ^31P or beta-NTP amplitude within the time domain signals. The ^31P MRS signal amplitude for each metabolite is directly related to the integrated area under the modeled spectrum in the frequency domain.
The depressed participants' ^31P-MRS brain scans were performed at baseline (prior to the first dose of creatine) and repeated at the conclusion of treatment. We enrolled and acquired baseline scans from ten healthy female adolescent controls; six agreed to return eight weeks later for a second scan. Statistical analyses were performed using JMP 8 (SAS Inc., Cary, N.C. USA). Because this was an open-label pilot study, all analyses were considered exploratory and no correction for multiple hypothesis testing was applied.

[5] = entry vs week 8, creatine 4 g daily adjunctive to fluoxetine, n=5

## CN(CC(=O)O)C(=N)N.O [creatine, creatine monohydrate]
[1]; in vivo
  Serious Adverse Events (SAEs): no Serious Adverse Events
  changes in weight, blood pressure or heart rate: No statistically significant changes
  course of adverse events: self-limited
  microalbuminuria or serum creatinine outside the reference range: No participant developed microalbuminuria or a serum creatinine outside the reference range
  tolerability: well tolerated
  withdrawal due to treatment emergent adverse effects or lack of efficacy: No participant withdrew
[1]; participant 3, * = possibly or probably related to study drug, monohydrate
  Adverse Events: H1N1 influenza*
[2]; in vivo
  duration of suicidal ideation reported as treatment began: 2-6 weeks
  outcome of participants' suicidal thoughts: resolved during treatment with creatine and did not recur
[2]; participant 3, baseline: wish to be dead 1 week prior to study drug
  C-SSRS During Treatment With Creatine (Weeks): Wish to be Dead (1)
[2]; participant 4, baseline: wish to be dead 1 week prior to study entry
  C-SSRS During Treatment With Creatine (Weeks): Wish to be Dead (1-5)
[3]; creatine monohydrate 4 g by mouth daily for 8 weeks, adjunctive to fluoxetine, n=5, mean raw score at entry 69
  mean CDRS-R score after eight weeks of treatment: 30.6
[3]; [5]
  decrease of mean CDRS-R raw score: 56%
  mean reduction in CDRS-R raw score (primary outcome measure): 38.4
[3]; participant 1, week 8, baseline 82, fluoxetine 40 mg
  CDRS-R (Week): 24 (8)
[3]; participant 2, week 8, baseline 76, fluoxetine 40 mg
  CDRS-R (Week): 44 (8)
[3]; participant 3, week 8, baseline 59, fluoxetine 40 mg
  CDRS-R (Week): 29 (8)
[3]; participant 4, week 8, baseline 66, fluoxetine 20 mg
  CDRS-R (Week): 23 (8)
[3]; participant 5, week 8, baseline 62, fluoxetine 40 mg
  CDRS-R (Week): 33 (8)
[3]; two weeks after discontinuation of creatine, compared with week 8
  mean CDRS-R raw score at week ten: lower than at the conclusion of treatment
[4]; MDD group n=5 after 8 weeks creatine 4 g daily, mean baseline 0.1525, p 0.020 paired t-test
  PCr-TP, Mean 8 Weeks: 0.1610
[4]; MDD group n=5 after 8 weeks creatine, mean baseline 0.125, p 0.729
  b-NTP/TP, Mean 8 Weeks: 0.128
[4]; MDD group n=5 after 8 weeks creatine, mean baseline 1.221, p 0.528
  PCr/b-NTP, Mean 8 Weeks: 1.270
[4]; MDD group n=5 after 8 weeks creatine, mean baseline 7.059, p 0.648
  pH, Mean 8 Weeks: 7.071
[4]; following 8 weeks of treatment
  change in mean PCr/b-NTP ratio: no change
  change in mean b-NTP: no change
  change in mean pH: no change
[4]; following 8 weeks of treatment, p=0.020, paired t-test, 2-tailed
  change in mean PCr: significant increase

Reference: patent US20130324609A1, “DEPRESSION DISORDER THERAPEUTICS WITH CREATINE ANALOGS” (UNIVERSITY OF UTAH RESEARCH FOUNDATION, priority 2010, published 2013)
